In the supplement of paper PMC13380429:

Experiments:
Conditions in all cases: 72 h
HepG2 [1] = test: relative viability EC50 (midpoint between 100% and the lowest measured viability); higher = less toxic
Caco-2 [2] = test: as above
Vero E6 [3] = test: as above
U2OS [4] = test: as above
Calu-3 [5] = test: as above
HepG2 [6] = test: drug sensitivity score (DSS) for viability; higher = more toxic; extreme values may be limits of the assay
Caco-2 [7] = test: as above
Vero E6 [8] = test: as above
U2OS [9] = test: as above
Calu-3 [10] = test: as above
HepG2 [11] = test: cell viability relative to DMSO; higher = less toxic
Caco-2 [12] = test: as above
Vero E6 [13] = test: as above
U2OS [14] = test: as above
Calu-3 [15] = test: as above

Row | SMILES | relative viability EC50 (HepG2 [1]) | relative viability EC50 (Caco-2 [2]) | relative viability EC50 (Vero E6 [3]) | relative viability EC50 (U2OS [4]) | relative viability EC50 (Calu-3 [5]) | drug sensitivity score (HepG2 [6]) | drug sensitivity score (Caco-2 [7]) | drug sensitivity score (Vero E6 [8]) | drug sensitivity score (U2OS [9]) | drug sensitivity score (Calu-3 [10]) | cell viability (HepG2 [11]; 1 nM) | cell viability (HepG2 [11]; 10 nM) | cell viability (HepG2 [11]; 100 nM) | cell viability (HepG2 [11]; 1000 nM) | cell viability (HepG2 [11]; 10000 nM) | cell viability (Caco-2 [12]; 1 nM) | cell viability (Caco-2 [12]; 10 nM) | cell viability (Caco-2 [12]; 100 nM) | cell viability (Caco-2 [12]; 1000 nM) | cell viability (Caco-2 [12]; 10000 nM) | cell viability (Vero E6 [13]; 1 nM) | cell viability (Vero E6 [13]; 10 nM) | cell viability (Vero E6 [13]; 100 nM) | cell viability (Vero E6 [13]; 1000 nM) | cell viability (Vero E6 [13]; 10000 nM) | cell viability (U2OS [14]; 1 nM) | cell viability (U2OS [14]; 10 nM) | cell viability (U2OS [14]; 100 nM) | cell viability (U2OS [14]; 1000 nM) | cell viability (U2OS [14]; 10000 nM) | cell viability (Calu-3 [15]; 1 nM) | cell viability (Calu-3 [15]; 10 nM) | cell viability (Calu-3 [15]; 100 nM) | cell viability (Calu-3 [15]; 1000 nM) | cell viability (Calu-3 [15]; 10000 nM)
1 | Nc1n[nH]c2nnc(-c3c(-c4ccccc4)nn4ccccc34)cc12 | > 10 µM | > 10 µM | > 10 µM | > 10 µM | > 10 µM | 0 | 0.2 | 0.2 | 0 | 0 | 102% | 95.2% | 103% | 97.9% | 91.8% | 95.7% | 107% | 90.4% | 97.1% | 84.3% | 105% | 93.6% | 97% | 94.8% | 84.5% | 98.2% | 102% | 94.9% | 102% | 89.1% | 98.9% | 102% | 99.8% | 90% | 95%
2 | CC(=O)Nc1ccc(C(=O)NC(C)(C)C)cc1 [CPI-1189] | > 10 µM | > 10 µM | > 10 µM | > 10 µM | > 10 µM | 0 | 0 | 0 | 0 | 0 | 91.5% | 95.3% | 96.6% | 97.4% | 94.2% | 99.9% | 99.7% | 104% | 95.7% | 99.9% | 96% | 99.6% | 97.8% | 97.2% | 91.8% | 100% | 93.3% | 98.2% | 97% | 98.7% | 108% | 105% | 108% | 114% | 96.6%
3 | CN1CC[C@@H](NC(=O)Nc2ccc(C#N)cc2)C[C@@H]1c1nc2ccccc2[nH]1 [glasdegib] | > 10 µM | > 10 µM | > 10 µM | > 10 µM | > 10 µM | 0 | 0.6 | 0 | 0 | 0 | 108% | 99% | 99.1% | 96.2% | 92% | 98.4% | 96.5% | 94.1% | 97.1% | 83.5% | 102% | 103% | 102% | 100% | 97.1% | 96.3% | 102% | 94.9% | 98.5% | 98.3% | 92.6% | 110% | 96.9% | 111% | 104%
